Measured values reported in article PMC7167990, “Therapeutic Effects of Atranorin towards the Proliferation of Babesia and Theileria Parasites” (Pathogens, 2020).
Blank lines part the entries; values can stand above or below the compound they belong to.

Key:
B. microti = B. microti in vivo; cited from earlier work
HFFs = test: Cytotoxicity assay (CCK-8 cell viability); type: cell-based, human
Description: (§1) Cultures of human foreskin fibroblast (HFF; HFF-1 ATCC® SCRC-1041™), Madin–Darby bovine kidney (MDBK; ECACC) and mouse embryonic fibroblast (NIH/3T3; ATCC® CRL-1658™) cells were retrieved from −80 °C stock and cultured continuously at 37 °C under atmosphere 5% CO2 in our laboratory. The NIH/3T3 and HFFs cells were maintained in Dulbecco Modified Eagle’s Medium (DMEM; Gibco, Grand Island, NY, USA), while MDBK cell line grown in Minimum Essential Medium Eagle (MEM; Gibco). Each medium was treated with 0.5% penicillin/streptomycin (Gibco), 10% inactivated fetal bovine serum and 2 mM glutamine. Every 72 to 96 h, the medium was replaced, and once 80% confluence was reached, the cell collection was performed by sub-culture protocol. To confirm the absence of mycoplasma contamination, 4,6-diamidino-2-phenylindole dihydrochloride stain (Sigma-Aldrich) was used.
(§2) The cell viability test was conducted in a 96-well plate as described elsewhere. Briefly, an aliquot of (100 µL) cells was implanted at a concentration of 5 × 10^4 cells/mL in DMEM or MEM with fetal bovine serum and incubated overnight under atmosphere 5% CO2 at 37 °C for attachment. Using two-fold dilutions, aliquots (10 µL) of drugs were added in triplicate per well to attain final concentrations of 50 to 1000 µM and further incubated for 24 h. The positive control wells containing cells mixed with the medium in 0.4% DMSO, whereas the negative control wells containing culture medium only. After a 24-h incubation, Cell Counting Kits-8 (CCK-8, 10 µL) was added to each well and then plate incubation was conducted for an additional 3 h and a microplate reader was used to assess the absorbance at 450 nm.

MDBK cells = test: Cytotoxicity assay (CCK-8 cell viability); type: cell-based, bovine
Description: as §1, §2

NIH/3T3 cells = test: Cytotoxicity assay (CCK-8 cell viability); type: cell-based, mouse
Description: as §1, §2

B. bigemina = test: In vitro growth inhibition, Babesia fluorescent (SYBR Green I) assay; type: cell-based; conditions: 96 h, 4 days culture, mean of triplicate experiments
Description: (§3) Babesia parasite was incubated and maintained at 37 °C in a humidifying chamber under 5% CO2, 5% O2, and 90% N2 atmosphere using a microaerophilic stationary-phase culture for conducting the in vitro experiment. Briefly, Germany strain Babesia divergens was cultured in cattle RBCs in Roswell Park Memorial Institute 1640 (RPMI 1640; Sigma-Aldrich, St. Louis, MO, USA) medium replenished with 40% cattle serum, while culture medium 199 (M199; Sigma-Aldrich) was utilized for the Argentina strain B. bigemina and Texas strain B. bovis, and T. equi USDA strain cultured in cattle RBCs supplemented with 40% cattle serum and horse RBCs maintained in hypoxanthine (MP Biomedicals, Santa Ana, CA, USA; final concentration 13.6 μg/mL) and 40% horse serum, respectively. GIT medium complemented with 40% horse serum was used as a growth medium for the USDA strain of B. caballi cultured in horse RBCs. To ensure free-bacterial contamination, amphotericin B (0.15 μg/mL) (Sigma-Aldrich), streptomycin (60 U/mL) and penicillin G (60 U/mL) were added to all medium.
(§4) The Babesia fluorescent assay was carried out on the in vitro culture as previously reported elsewhere to assess the growth of the inhibitory effectiveness of ATR and the combination treatment with DA, CF, and AV. Briefly, in three separate trials, using two-fold dilution, different concentrations of ATR, DA, CF, and AV were prepared in the culture medium and added in 96-well plates in triplicate with 1% parasitemia for T. equi, B. divergens and B. caballi at 5% HCT, while for B. bigemina and B. bovis using 2.5% HCT. The drug combined efficacy was conducted at the same time with the single-treatment assay in accordance with the Chou–Talalay method. […] On day four of culture, an aliquot (100 µL) of lysis buffer mixed with 0.2μL/mL SG1 was added per well; subsequently, it was covered with aluminum foil to prevent exposure to light. After incubation for 6-h at 37 °C, fluorescence readings were acquired on a spectrofluorimeter (Fluoroskan Ascent, Thermo Fisher Scientific, Oceanside, CA, USA) with a 485 nm excitation wavelength and a 518 nm emission wavelength.
(§5) The IC50 values of ATR, DA, CF, and AV were established from the in vitro growth inhibition by nonlinear regression curve fit on a GraphPad Prism (GraphPad Software Inc., San Diego, CA, USA). […] The significant variations (p < 0.05) among group mean values on parasitemia and one-way ANOVA Tukey’s test in GraphPad Prism version 5.0 was used to analyze hematology profiles in mice infected with B. microti.

B. bovis = test: as above; type: cell-based; conditions: Bos taurus, 96 h, 4 days culture, mean of triplicate experiments
Description: as §3, §4, §5

B. divergens = test: as above; type: cell-based; conditions: 96 h, 4 days culture, mean of triplicate experiments
Description: as §3, §4, §5

T. equi = test: as above; type: cell-based; conditions: 96 h, 4 days culture, mean of triplicate experiments
Description: as §3, §4, §5

Structure (SMILES): CC1COc2c(N3CCN(C)CC3)c(F)cc3c(=O)c(C(=O)O)cn1c23 (stereo not drawn) [ofloxacin]
chemotherapeutic effect (B. microti): 49%

Structure (SMILES): CO[C@H]1/C=C\C=C(/C)C(=O)NC2=CC(=O)C(NCCN(C)C)=C(C[C@@H](C)C[C@H](OC)[C@H](O)[C@@H](C)/C=C(\C)[C@@H]1OC(N)=O)C2=O [17-DMAG]
chemotherapeutic effect (B. microti): 89%

Structure (SMILES): C=CCS[S+]([O-])CC=C (stereo not drawn) [allicin]
chemotherapeutic effect (B. microti): 58.3%

Structure (SMILES): CCn1cc(C(=O)O)c(=O)c2cc(F)c(N3CCNCC3)cc21 [norfloxacin]
chemotherapeutic effect (B. microti): 31%

Structure (SMILES): CC1=CC(=O)C(C(C)C)=CC1=O [thymoquinone]
chemotherapeutic effect (B. microti): 37%

IC50 (B. bigemina): 5.73 ± 1.9 µM
IC50 (B. bovis): 8.24 ± 1.7 µM
IC50 (B. divergens): 13.8 ± 4.3 µM
IC50 (T. equi): 2.88 ± 0.9 µM
Structure (SMILES): CC(C)/N=c1\cc2n(-c3ccc(Cl)cc3)c3ccccc3nc-2cc1Nc1ccc(Cl)cc1 [CF, clofazimine]
Selective Index HFFs (HFFs; EC50 HFFs / IC50 B. bigemina): ˃17.5
Selective Index HFFs (HFFs; EC50 HFFs / IC50 B. bovis): ˃12.1
Selective Index HFFs (HFFs; EC50 HFFs / IC50 B. caballi): ˃12.6
Selective Index HFFs (HFFs; EC50 HFFs / IC50 B. divergens): ˃7.2
Selective Index HFFs (HFFs; EC50 HFFs / IC50 T. equi): ˃34.7
EC50 (HFFs; Homo sapiens, HFFs, 24 h, CCK-8): > 100 µM
EC50 (MDBK cells; Bos taurus, MDBK cells, 24 h, CCK-8): 34.7 ± 3.4 µM
Selective Index MDBK (MDBK cells; EC50 MDBK / IC50 B. bigemina): 6.1
Selective Index MDBK (MDBK cells; EC50 MDBK / IC50 B. bovis): 4.2
Selective Index MDBK (MDBK cells; EC50 MDBK / IC50 B. caballi): 4.4
Selective Index MDBK (MDBK cells; EC50 MDBK / IC50 B. divergens): 2.5
Selective Index MDBK (MDBK cells; EC50 MDBK / IC50 T. equi): 12.1
Selective Index NIH/3T3 (NIH/3T3 cells; EC50 NIH/3T3 / IC50 B. bigemina): ˃17.5
Selective Index NIH/3T3 (NIH/3T3 cells; EC50 NIH/3T3 / IC50 B. bovis): ˃12.1
Selective Index NIH/3T3 (NIH/3T3 cells; EC50 NIH/3T3 / IC50 B. caballi): ˃12.6
Selective Index NIH/3T3 (NIH/3T3 cells; EC50 NIH/3T3 / IC50 B. divergens): ˃7.2
Selective Index NIH/3T3 (NIH/3T3 cells; EC50 NIH/3T3 / IC50 T. equi): ˃34.7
EC50 (NIH/3T3 cells; Mus musculus, NIH3T3, NIH/3T3 cells, 24 h, CCK-8, read-out: EC50 NIH/3T3): > 100 µM

Structure (SMILES): O=c1oc2c(O)c(O)cc3c(=O)oc4c(O)c(O)cc1c4c23 [ellagic acid]
chemotherapeutic effect (B. microti): 49%

Structure (SMILES): CCn1cc(C(=O)O)c(=O)c2cc(F)c(N3CCNCC3)nc21 [enoxacin]
chemotherapeutic effect (B. microti): 34%

Structure (SMILES): COc1cc2c[n+](C)c3c4cc5c(cc4ccc3c2cc1OC)OCO5 [nitidine chloride]
chemotherapeutic effect (B. microti): 91%
